Experimental data taken from ChEMBL document CHEMBL6078669, “Stereoisomers of cannabidiols and their pharmacological activities - A potentially novel direction for cannabinoids” (Bioorg Med Chem, 2025).
“And” between values parts separate entries of the source, which are not always exact repeats. Identical values can stand only once.

Experiments:
[1] = biological target: T1, Cannabinoid receptor 1 (Rattus norvegicus, UniProt P20272); experiment: Displacement of [3H]HU-243 from Sabra rat brain synaptosome CB1 receptor assessed as inhibition constant incubated for 90 mins; format: subcellular
T1 sequence (P20272 whole entry): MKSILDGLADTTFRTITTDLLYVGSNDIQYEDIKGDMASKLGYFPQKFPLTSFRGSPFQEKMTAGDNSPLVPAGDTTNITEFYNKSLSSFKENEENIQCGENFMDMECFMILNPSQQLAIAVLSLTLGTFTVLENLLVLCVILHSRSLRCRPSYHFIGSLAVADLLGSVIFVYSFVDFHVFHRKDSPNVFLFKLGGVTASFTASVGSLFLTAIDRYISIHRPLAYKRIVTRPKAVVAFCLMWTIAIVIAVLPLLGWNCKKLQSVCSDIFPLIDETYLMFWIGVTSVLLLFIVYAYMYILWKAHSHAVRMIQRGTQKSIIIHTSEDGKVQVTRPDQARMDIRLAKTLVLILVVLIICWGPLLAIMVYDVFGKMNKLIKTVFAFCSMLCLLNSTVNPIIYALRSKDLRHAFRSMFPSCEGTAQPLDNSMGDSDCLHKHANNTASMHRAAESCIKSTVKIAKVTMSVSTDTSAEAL

[2] = biological target: T2, Cannabinoid receptor 2 (Homo sapiens, UniProt P34972); experiment: Displacement of [3H]HU-243 from CB2 receptor (unknown origin) extracted from green monkey COS-7 cell membrane assessed as inhibition constant incubated for 90 mins; format: cell membranes
T2 sequence (P34972 whole entry): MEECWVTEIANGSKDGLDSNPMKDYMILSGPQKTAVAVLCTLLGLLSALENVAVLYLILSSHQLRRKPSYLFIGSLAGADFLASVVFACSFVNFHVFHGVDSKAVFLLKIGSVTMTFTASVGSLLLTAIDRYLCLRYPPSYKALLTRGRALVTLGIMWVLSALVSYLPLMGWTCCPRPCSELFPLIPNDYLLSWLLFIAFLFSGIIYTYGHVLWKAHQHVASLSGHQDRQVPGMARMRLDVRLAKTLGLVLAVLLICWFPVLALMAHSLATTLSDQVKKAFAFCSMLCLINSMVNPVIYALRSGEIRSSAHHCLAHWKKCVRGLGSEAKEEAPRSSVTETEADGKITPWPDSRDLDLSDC

[3] = Selectivity index, ratio of Ki for Sabra rat brain synaptosome CB1 receptor to Ki for CB2 receptor (unknown origin) extracted from green monkey COS-7 cells
[4] = biological target: T1, Cannabinoid receptor 1; experiment: Displacement of [3H]CP-55,940 from Sabra rat brain synaptosome CB1 receptor assessed as inhibition constant incubated for 90 mins; format: subcellular
[5] = biological target: T2, Cannabinoid receptor 2; experiment: Displacement of [3H]CP-55,940 from human CB2 receptor extracted from CHO cell membrane assessed as inhibition constant incubated for 90 mins; format: cell membranes
[6] = Selectivity index, ratio of Ki for Sabra rat brain synaptosome CB1 receptor to Ki for human CB2 receptor extracted from CHO cell membrane
[7] = biological target: Transient receptor potential cation channel subfamily V member 1 (Homo sapiens, UniProt Q8NER1); experiment: Agonist activity at human TRPV1 receptor expressed in HEK293 cells assessed as effect on [Ca2+]i preincubated with capsazepine for 30 mins followed by compound addition by Fluo-3 probe based fluorescence analysis; format: cell-based
Chain of Transient receptor potential cation channel subfamily V member 1 (Q8NER1 whole entry): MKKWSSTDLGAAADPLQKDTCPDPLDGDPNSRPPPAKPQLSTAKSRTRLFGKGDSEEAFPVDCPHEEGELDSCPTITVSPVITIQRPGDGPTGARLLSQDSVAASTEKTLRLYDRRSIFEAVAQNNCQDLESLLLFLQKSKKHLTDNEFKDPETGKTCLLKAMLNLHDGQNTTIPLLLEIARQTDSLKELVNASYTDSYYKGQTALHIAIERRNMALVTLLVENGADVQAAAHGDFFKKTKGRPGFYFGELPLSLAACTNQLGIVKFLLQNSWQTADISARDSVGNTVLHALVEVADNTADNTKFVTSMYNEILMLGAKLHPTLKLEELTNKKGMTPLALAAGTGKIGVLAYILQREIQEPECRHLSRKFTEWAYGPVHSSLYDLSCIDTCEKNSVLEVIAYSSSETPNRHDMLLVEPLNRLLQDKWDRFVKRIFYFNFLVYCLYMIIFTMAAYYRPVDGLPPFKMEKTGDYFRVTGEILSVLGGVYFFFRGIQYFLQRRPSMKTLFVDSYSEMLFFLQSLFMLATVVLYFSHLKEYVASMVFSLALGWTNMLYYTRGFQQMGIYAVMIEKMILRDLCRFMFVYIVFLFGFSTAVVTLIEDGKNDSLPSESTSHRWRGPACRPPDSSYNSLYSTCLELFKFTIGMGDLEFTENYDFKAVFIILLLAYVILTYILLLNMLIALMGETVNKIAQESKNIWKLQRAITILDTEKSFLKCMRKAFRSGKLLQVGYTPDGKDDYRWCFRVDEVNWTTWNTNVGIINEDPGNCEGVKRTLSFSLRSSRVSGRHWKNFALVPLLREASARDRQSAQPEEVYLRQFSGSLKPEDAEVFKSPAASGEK

[8] = Inhibition of [14C]-arachidonoylethanolamide uptake in rat RBL-2H3 cells assessed as increase in AEA level incubated for 5 mins by scintillation counting; format: functional, cell-based; details: RBL-2H3, 5 min
[9] = biological target: T3, Fatty-acid amide hydrolase 1 (Mus musculus, UniProt O08914); experiment: Inhibition of FAAH-mediated [14C]-AEA hydrolysis in mouse N18TG2 cell membrane incubated for 30 mins by scintillation counting; format: cell membranes
T3 sequence (O08914 whole entry): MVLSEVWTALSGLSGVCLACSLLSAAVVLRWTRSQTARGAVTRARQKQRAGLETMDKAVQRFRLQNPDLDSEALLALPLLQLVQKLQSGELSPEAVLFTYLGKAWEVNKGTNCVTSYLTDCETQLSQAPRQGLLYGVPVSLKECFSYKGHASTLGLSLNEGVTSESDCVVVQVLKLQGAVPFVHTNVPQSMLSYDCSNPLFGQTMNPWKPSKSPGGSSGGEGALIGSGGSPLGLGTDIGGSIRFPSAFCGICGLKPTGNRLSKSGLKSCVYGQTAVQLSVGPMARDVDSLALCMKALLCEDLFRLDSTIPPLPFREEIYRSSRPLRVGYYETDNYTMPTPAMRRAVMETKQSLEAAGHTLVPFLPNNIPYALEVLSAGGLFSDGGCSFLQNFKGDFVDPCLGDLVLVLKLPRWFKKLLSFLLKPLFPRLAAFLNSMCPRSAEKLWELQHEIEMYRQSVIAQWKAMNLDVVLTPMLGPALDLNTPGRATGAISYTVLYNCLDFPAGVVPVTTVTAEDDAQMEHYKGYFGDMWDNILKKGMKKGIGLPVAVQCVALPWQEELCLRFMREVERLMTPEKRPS

[10] = biological target: T1, Cannabinoid receptor 1; experiment: Displacement of [3H]HU-243 from Sabra rat brain synaptosome CB1 receptor assessed as inhibition constant; format: subcellular
[11] = biological target: T4, Cannabinoid receptor 1 (Homo sapiens, UniProt P21554); experiment: Binding affinity to CB1 receptor (unknown origin) assessed as inhibition constant
T4 sequence (P21554 whole entry): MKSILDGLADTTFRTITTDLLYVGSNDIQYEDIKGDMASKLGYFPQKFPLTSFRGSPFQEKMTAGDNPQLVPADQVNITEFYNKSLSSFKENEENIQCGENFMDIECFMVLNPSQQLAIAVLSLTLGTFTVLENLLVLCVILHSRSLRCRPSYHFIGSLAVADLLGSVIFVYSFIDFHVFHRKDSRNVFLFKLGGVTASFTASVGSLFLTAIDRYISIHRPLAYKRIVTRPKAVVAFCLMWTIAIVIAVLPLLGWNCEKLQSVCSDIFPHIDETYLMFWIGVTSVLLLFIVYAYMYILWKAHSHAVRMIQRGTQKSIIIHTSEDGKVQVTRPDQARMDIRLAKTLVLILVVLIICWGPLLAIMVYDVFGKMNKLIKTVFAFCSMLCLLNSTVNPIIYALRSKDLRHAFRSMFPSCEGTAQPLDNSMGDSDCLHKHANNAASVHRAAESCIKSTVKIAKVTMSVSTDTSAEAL

[12] = biological target: T2, Cannabinoid receptor 2; experiment: Binding affinity to CB2 receptor (unknown origin) assessed as inhibition constant
[13] = Selectivity ratio of Ki for CB1 receptor (unknown origin) to Ki for CB2 receptor (unknown origin)
[14] = biological target: T4, Cannabinoid receptor 1; experiment: Displacement of [3H]CP-55,940 from human CB1 receptor extracted from HEK293 cell membrane assessed as inhibition constant incubated for 90 mins by liquid scintillation spectrophotometric analysis; format: cell membranes
[15] = biological target: T2, Cannabinoid receptor 2; experiment: Displacement of [3H]CP-55,940 from human CB2 receptor extracted from HEK293 cell membrane assessed as inhibition constant incubated for 90 mins by liquid scintillation spectrophotometric analysis; format: cell membranes
[16] = organism: Homo sapiens; experiment: Selectivity ratio of Ki for human CB1 receptor extracted from HEK293 cell membrane to Ki for human CB2 receptor extracted from HEK293 cell membrane

C=C(C)[C@H]1CCC(CO)=C[C@@H]1c1c(O)cc(CCCCC)cc1O
Ki [1]: 5.3 nM
Ki [2]: 101 nM
Ratio Ki [3]: 0.05

CCCCCc1cc(O)c([C@H]2C=C(CO)CC[C@@H]2C(C)C)c(O)c1
Ki [4]: 76.7 nM
Ki [5]: 12.1 nM
Ratio Ki [6]: 6.3

C=C(C)[C@H]1CCC(C)=C[C@@H]1c1c(O)cc(CCCCC)cc1O
EC50 [7]: 3200 nM
IC50 [8]: 17000 nM
IC50 [9]: 63500 nM

CCCCCCC(C)(C)c1cc(OC)c([C@H]2C=C(CO)[C@H]3C[C@@H]2C3(C)C)c(OC)c1
Ki [10]: > 10000 nM

CCCCCCC(C)(C)c1cc(O)c(-c2c(CO)cccc2C(C)C)c(OC)c1
Ki [11]: > 1000 nM
Ki [12]: 0.64 nM and 0.28 nM
Ratio Ki [13]: 17

C=C(C)[C@@H]1CCC(C(=O)O)=C[C@H]1c1c(O)cc(C(C)(C)CCCCCC)cc1O
Ki [11]: > 1000 nM
Ki [12]: > 1000 nM

C=C(C)[C@H]1CCC(C(=O)O)=C[C@@H]1c1c(O)cc(CCCCC)cc1O
Ki [11]: 13.2 nM
Ki [12]: 313 nM
Ratio Ki [13]: 0.04

C=C(C)[C@@H]1CCC(C)=C[C@H]1c1c(O)cc(CCCCC)c(C(=O)OC)c1O
Ki [14]: 3.1 nM
Ki [15]: 0.8 nM
Ratio Ki [16]: 3.9

C=C(C)[C@H]1CCC(C)=C[C@@H]1c1c(O)cc(CCC)c(C(=O)OC)c1O
Ki [14]: 345 nM
Ki [15]: 28 nM
Ratio Ki [16]: 12.3

C=C(C)[C@H]1CCC(C)=C[C@@H]1c1c(OC)cc(C(C)(C)CCCCCC)cc1OC
Ki [1]: > 1000 nM
Ki [2]: > 1000 nM

C=C(C)[C@H]1CCC(C)=C[C@@H]1c1c(O)cc(CCCCC)c(C(=O)OCCO)c1O
Ki [14]: 259 nM

C=C(C)[C@H]1CCC(C)=C[C@@H]1c1c(O)cc(C(C)(C)CCCCCC)cc1O
Ki [1]: 17.4 nM
Ki [2]: 211 nM
IC50 [8]: 10000 nM

COc1cc(C(C)(C)CCCCCCN=C=S)cc(OC)c1[C@@H]1C=C(CO)[C@@H]2C[C@H]1C2(C)C
Ki [11]: > 1000 nM
Ki [12]: 121 nM

C=C(C)[C@@H]1CCC(C(=O)O)=C[C@H]1c1c(O)cc(CCCCC)cc1O
Ki [1]: > 1000 nM
Ki [2]: > 1000 nM
